Measured values taken from patent US7417156B2, “Orally active, antimalarial, anticancer, artemisinin-derived trioxane dimers” (Johns Hopkins University, priority 2002, dated 2008).

How the values were obtained:
KM12 = test: NCI 60 cell line panel screen (SRB); format: cell-based, human; settings: for Log10GI50: Colon Cancer, KM12; for Log10LC50 / Log10TGI50: KM12 (Colon Cancer); for Log10LC50: LC50: PG=−50; for Log10TGI50: TGI: PG=0
RXF 393 = test: NCI 60 cell line panel screen (SRB); format: cell-based, human; settings: for Log10LC50 / Log10TGI50: RXF 393 (Renal Cancer); for Log10LC50: LC50: PG=−50; for Log10TGI50: TGI: PG=0; for Log10GI50: Renal Cancer, RXF 393
UO-31 = test: NCI 60 cell line panel screen (SRB); format: cell-based, human; settings: for Log10GI50: Renal Cancer, UO-31; for Log10LC50 / Log10TGI50: UO-31 (Renal Cancer); for Log10LC50: LC50: PG=−50; for Log10TGI50: TGI: PG=0
NCI-H226 = test: NCI 60 cell line panel screen (SRB); format: cell-based, human
HCC-2998 = test: NCI 60 cell line panel screen (SRB); format: cell-based, human
SW-620 = test: NCI 60 cell line panel screen (SRB); format: cell-based, human
SF-295 = test: NCI 60 cell line panel screen (SRB); format: cell-based, human
LOX IMVI = test: NCI 60 cell line panel screen (SRB); format: cell-based, human
SK-MEL-5 = test: NCI 60 cell line panel screen (SRB); format: cell-based, human
UACC-62 = test: NCI 60 cell line panel screen (SRB); format: cell-based, human; settings: UACC-62 (Melanoma)
OVCAR-4 = test: NCI 60 cell line panel screen (SRB); format: cell-based, human
A498 = test: NCI 60 cell line panel screen (SRB); format: cell-based, human
SN12C = test: NCI 60 cell line panel screen (SRB); format: cell-based, human
DU-145 = test: NCI 60 cell line panel screen (SRB); format: cell-based, human
[1] = system: P. berghei NY malaria parasite; test: Antimalarial efficacies in vivo in mice
Excerpt: Neither overt toxicity nor behavioral modification was observed due to drug administration in any of these mouse experiments.

malaria parasite = test: Efficacy Study Blood Schizontocidal Activity; format: in vivo; design: ED90: unit not given here

## C[C@@H]1CC[C@H]2[C@@H](C)C(CC(O)(CC3OC4O[C@]5(C)CC[C@H]6[C@H](C)CC[C@@H]([C@H]3C)C46OO5)c3ccc(C(=O)O)cc3)OC3O[C@]4(C)CCC1C32OO4 (stereo partly shown) [Compound 11b, bis-trioxane tertiary alcohol benzoic acid]
KM12
  Log10GI50: <−8.30
  Log10LC50: −5.95 log10M
  Log10TGI50: <−8.30 log10M
RXF 393
  Log10LC50: >−4.30 log10M
  Log10TGI50: −7.60 log10M
  Log10GI50: <−8.30
UO-31
  Log10GI50: −6.78
  Log10LC50: >−4.30 log10M
  Log10TGI50: >−4.30 log10M

## CC1CCC2C(C)C(CC(O)(CO)CC3OC4OC5(C)CCC6C(C)CCC(C3C)C46OO5)OC3OC4(C)CCC1C32OO4 (stereo not shown) [Compound 5, bis-trioxane vicinal diol]
NCI-H226; NCI-H226 (Non-Small Cell Lung Cancer), LC50: PG=−50
  Log10LC50: −4.11 log10M
NCI-H226; NCI-H226 (Non-Small Cell Lung Cancer), TGI: PG=0
  Log10TGI50: −4.49 log10M
NCI-H226; Non-Small Cell Lung Cancer, NCI-H226
  Log10GI50: −4.87
HCC-2998; Colon Cancer, HCC-2998
  Log10GI50: −4.65
HCC-2998; HCC-2998 (Colon Cancer), LC50: PG=−50
  Log10LC50: >−4.00 log10M
HCC-2998; HCC-2998 (Colon Cancer), TGI: PG=0
  Log10TGI50: −4.23 log10M
KM12
  Log10GI50: <−8.00
  Log10LC50: >−4.00 log10M
  Log10TGI50: −4.47 log10M
SW-620; Colon Cancer, SW-620
  Log10GI50: −4.97
SW-620; SW-620 (Colon Cancer), LC50: PG=−50
  Log10LC50: >−4.00 log10M
SW-620; SW-620 (Colon Cancer), TGI: PG=0
  Log10TGI50: >−4.00 log10M
SF-295; CNS Cancer, SF-295
  Log10GI50: −4.94
SF-295; SF-295 (CNS Cancer), LC50: PG=−50
  Log10LC50: −4.04 log10M
SF-295; SF-295 (CNS Cancer), TGI: PG=0
  Log10TGI50: −4.49 log10M
LOX IMVI; LOX IMVI (Melanoma), LC50: PG=−50
  Log10LC50: −4.44 log10M
LOX IMVI; LOX IMVI (Melanoma), TGI: PG=0
  Log10TGI50: −5.47 log10M
LOX IMVI; Melanoma, LOX IMVI
  Log10GI50: <−8.00
SK-MEL-5; Melanoma, SK-MEL-5
  Log10GI50: −7.69
SK-MEL-5; SK-MEL-5 (Melanoma), LC50: PG=−50
  Log10LC50: −4.21 log10M
SK-MEL-5; SK-MEL-5 (Melanoma), TGI: PG=0
  Log10TGI50: −4.64 log10M
UACC-62; LC50: PG=−50
  Log10LC50: −4.24 log10M
UACC-62; TGI: PG=0
  Log10TGI50: −4.67 log10M
OVCAR-4; OVCAR-4 (Ovarian Cancer), LC50: PG=−50
  Log10LC50: −4.12 log10M
OVCAR-4; OVCAR-4 (Ovarian Cancer), TGI: PG=0
  Log10TGI50: −4.55 log10M
OVCAR-4; Ovarian Cancer, OVCAR-4
  Log10GI50: −4.99
A498; A498 (Renal Cancer), LC50: PG=−50
  Log10LC50: −4.21 log10M
A498; A498 (Renal Cancer), TGI: PG=0
  Log10TGI50: −4.51 log10M
A498; Renal Cancer, A498
  Log10GI50: −4.81
RXF 393
  Log10LC50: −4.18 log10M
  Log10TGI50: −4.53 log10M
  Log10GI50: −4.89
SN12C; Renal Cancer, SN12C
  Log10GI50: −7.60
SN12C; SN12C (Renal Cancer), LC50: PG=−50
  Log10LC50: −4.26 log10M
SN12C; SN12C (Renal Cancer), TGI: PG=0
  Log10TGI50: −4.72 log10M
UO-31
  Log10GI50: −7.38
  Log10LC50: −4.26 log10M
  Log10TGI50: −4.68 log10M
DU-145; DU-145 (Prostate Cancer), LC50: PG=−50
  Log10LC50: −4.13 log10M
DU-145; DU-145 (Prostate Cancer), TGI: PG=0
  Log10TGI50: −4.48 log10M
DU-145; Prostate Cancer, DU-145
  Log10GI50: −4.83

## CC1CCC2C(C)C(CC(COCC(=O)O)CC3OC4OC5(C)CCC6C(C)CCC(C3C)C46OO5)OC3OC4(C)CCC1C32OO4 (stereo not shown) [Compound 12b, bis-trioxane O-acetic acid]
[1]; route IV
  ED50: 1.0 mg/kg × 4
  ED90: 3.5 mg/kg × 4
  % Parasite Supression at 10 mg/kg: 95.7%
[1]; route PO
  ED50: 6.5 mg/kg × 4
  ED90: 17.0 mg/kg × 4
  % Parasite Supression at 10 mg/kg: 46.5%
Malaria parasite; Route: IV
  ED50: 5.2
  ED90: 10.0
Malaria parasite; Route: PO
  ED50: 6.0
  ED90: 19.0
KM12
  Log10TGI50: <−8.30 log10M
RXF 393
  Log10TGI50: <−8.30 log10M
UO-31
  Log10GI50: −5.84
  Log10TGI50: >−4.30 log10M
